Experimental data published in patent US20230295157A1, “3-(1H-IMIDAZOL-2-YL)-2,3,8,8A-TETRAHYDROINDOLIZIN-5(1H)-ONE DERIVATIVES USEFUL AS FACTOR XIA INHIBITORS” (JANSSEN PHARMACEUTICA NV, priority 2020, published 2023).
Read-outs that look alike come from different tables or passages of the source.

Key:
[1] = target: human plasma kallikrein (Homo sapiens (Human), UniProt P03952); assay: Kallikrein inhibition assay (FLINT) utilizing a quenched AMC peptide substrate; assay type: biochemical; details: 30 min preincubation, read-out: Kallikrein Kin Inh IC50
Method in brief: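 Fluorogenic Z-Gly-Pro-Arg-AMC cleavage (50 μM substrate, 2 nM kallikrein, Tris pH 7.5, CaCl2, BSA, CHAPS, 2% DMSO) read kinetically at 340/440 nm for 30 min after 30-min compound pre-incubation. Compounds in 11-point 3-fold series from 1 μM; percent inhibition fitted to four-parameter equation for IC50.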

[2] = target: Factor XIa (Homo sapiens (Human), UniProt P03951); assay: Factor XIa inhibition assay (FLINT) utilizing a fluorophore-quencher pair peptide substrate; assay type: biochemical; details: 30 min preincubation, kinetic reads over 30 min, read-out: FXIa Kin Inh IC50
Method in brief: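 FXIa ([…]) preincubated 30 min with compound (11-point 3-fold dilution, top 100 nM, 2% DMSO), then 15 μM quenched FXI Arg146-based peptide added; Tris pH 7.5, CaCl2, BSA, CHAPS. Fluorescence 485/520 nm read kinetically every 5 min over 30 min at RT; IC50 by 4-parameter fit.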

[3] = kinetic reads over 30 min, Z-Gly-Pro-Arg-AMC substrate 50 μM
[4] = 5Fam-KLTRAETV-K5Tamra substrate 15 μM
[5] = 5Fam-[…]-K5Tamra substrate 15 μM

Factor XIa, sequence (P03951 388-625): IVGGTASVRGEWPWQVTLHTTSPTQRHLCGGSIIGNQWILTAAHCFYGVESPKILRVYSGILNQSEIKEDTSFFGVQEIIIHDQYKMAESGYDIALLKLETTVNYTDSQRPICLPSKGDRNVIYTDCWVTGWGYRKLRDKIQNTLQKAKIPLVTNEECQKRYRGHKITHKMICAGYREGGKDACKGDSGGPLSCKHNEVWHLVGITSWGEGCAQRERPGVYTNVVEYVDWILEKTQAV
Factor XIa, sequence (P03951 19-387 partner): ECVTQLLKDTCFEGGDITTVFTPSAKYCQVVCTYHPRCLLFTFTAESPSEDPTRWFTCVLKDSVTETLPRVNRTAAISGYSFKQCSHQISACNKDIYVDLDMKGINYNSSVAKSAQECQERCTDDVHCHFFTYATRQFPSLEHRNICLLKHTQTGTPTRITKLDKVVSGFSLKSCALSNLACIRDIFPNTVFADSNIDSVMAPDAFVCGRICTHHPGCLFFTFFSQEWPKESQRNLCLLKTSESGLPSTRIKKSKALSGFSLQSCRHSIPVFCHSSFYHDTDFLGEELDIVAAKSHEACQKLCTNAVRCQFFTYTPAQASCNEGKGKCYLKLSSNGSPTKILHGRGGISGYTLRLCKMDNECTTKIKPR
human plasma kallikrein, sequence (P03952 391-638): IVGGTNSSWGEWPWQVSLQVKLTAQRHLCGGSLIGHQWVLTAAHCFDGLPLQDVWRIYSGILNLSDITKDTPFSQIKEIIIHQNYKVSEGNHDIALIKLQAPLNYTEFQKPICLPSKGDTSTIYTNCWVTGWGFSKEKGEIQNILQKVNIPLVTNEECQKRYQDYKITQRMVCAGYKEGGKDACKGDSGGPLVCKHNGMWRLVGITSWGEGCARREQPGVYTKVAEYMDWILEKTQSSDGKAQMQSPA
human plasma kallikrein, sequence (P03952 20-390 partner): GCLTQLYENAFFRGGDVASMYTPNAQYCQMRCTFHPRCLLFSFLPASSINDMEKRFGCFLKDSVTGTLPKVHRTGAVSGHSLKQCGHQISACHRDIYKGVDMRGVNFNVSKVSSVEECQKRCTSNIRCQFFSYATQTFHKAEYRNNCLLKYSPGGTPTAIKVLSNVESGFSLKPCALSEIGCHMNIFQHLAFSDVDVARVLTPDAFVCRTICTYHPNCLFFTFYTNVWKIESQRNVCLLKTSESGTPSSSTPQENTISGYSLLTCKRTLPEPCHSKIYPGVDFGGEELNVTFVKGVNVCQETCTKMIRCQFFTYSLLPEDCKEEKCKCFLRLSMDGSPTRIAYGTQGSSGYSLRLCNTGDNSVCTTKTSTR

Q: Which IC50 [1, 3] does the source give for O=C1C=C(c2c(-n3cnnn3)ccc(Cl)c2F)C[C@H]2CC[C@@H](c3ncc(-c4ccc5[nH]c(=O)[nH]c5c4)[nH]3)N12 (single isomer, unassigned) [Example 286] here?
A: The IC50 was 0.0011 µM.

Q: And the IC50 [2, 4]?
A: Its IC50 is 1.5 nM.

Q: Which IC50 [1, 3] does the source give for CCC(=O)Nc1ccccc1-c1c[nH]c([C@@H]2CC[C@@H]3CC(c4c(-n5cnnn5)ccc(Cl)c4F)=CC(=O)N32)n1 (single isomer, unassigned) [Example 295, N-(2-(2-((3S,8aR*)-7-(3-Chloro-2-fluoro-6-(1H-tetrazol-1-yl)phenyl)-5-oxo-1,2,3,5,8,8a-hexahydroindolizin-3-yl)-1H-imidazol-4-yl)phenyl)propionamide] here?
A: The IC50 was 0.0026 µM.

Q: And the IC50 [2, 4]?
A: Its IC50 is 0.7 nM.

Q: Which IC50 ([1]; μM, kinetic reads) does the source give for Cn1cc(-c2ccccc2NC(=O)C2CC2)nc1[C@@H]1CC[C@@H]2CC(c3c(-n4cnnn4)ccc(Cl)c3F)=CC(=O)N21 (single isomer, unassigned) [Example 298, N-(2-(2-((3S,8aR*)-7-(3-Chloro-2-fluoro-6-(1H-tetrazol-1-yl)phenyl)-5-oxo-1,2,3,5,8,8a-hexahydroindolizin-3-yl)-1-methyl-1H-imidazol-4-yl)phenyl)cyclopropanecarboxamide] here?
A: The IC50 was 1.05 µM.

Q: And the IC50 [2, 4]?
A: The IC50 was over 100 nM.

Q: C[C@@H]1C[C@@H](c2ncc(-c3ccc(N)nc3F)[nH]2)N2C(=O)C=C(c3c(-n4cnnn4)ccc(Cl)c3F)C[C@H]12 (single isomer, unassigned) [Example 345, (1*R,3S,8a*R)-3-(5-(6-Amino-2-fluoropyridin-3-yl)-1H-imidazol-2-yl)-7-(3-chloro-2-fluoro-6-(1H-tetrazol-1-yl)phenyl)-1-methyl-2,3,8,8a-tetrahydroindolizin-5(1H)-one] was tested. Which IC50 [1, 3] did it give?
A: Its IC50 is 0.0145 µM.

Q: What about the IC50 [2, 4] of the same compound?
A: The IC50 was 2.6 nM.

Q: How did the IC50 [1, 3] turn out when C[C@H]1C[C@@H](c2ncc(-c3ccc(N)nc3F)[nH]2)N2C(=O)C=C(c3c(-n4cnnn4)ccc(Cl)c3F)C[C@@H]12 (single isomer, unassigned) [Example 346, (1*S,3S,8a*S)-3-(5-(6-Amino-2-fluoropyridin-3-yl)-1H-imidazol-2-yl)-7-(3-chloro-2-fluoro-6-(1H-tetrazol-1-yl)phenyl)-1-methyl-2,3,8,8a-tetrahydroindolizin-5(1H)-one] was run?
A: Its IC50 is 0.0082 µM.

Q: What about the IC50 [2, 4] of the same compound?
A: Its IC50 is 1.3 nM.

Q: Which IC50 [1, 3] does the source give for Nc1ccc(-c2cnc([C@@H]3CC[C@@H]4C(=O)N(c5cc(Cl)ccc5-n5cnnn5)CC(=O)N43)[nH]2)c(F)n1 (single isomer, unassigned) [Example 360, (6S*,8aR*)-6-(5-(6-amino-2-fluoropyridin-3-yl)-1H-imidazol-2-yl)-2-(5-chloro-2-(1H-tetrazol-1-yl)phenyl)hexahydropyrrolo[1,2-a]pyrazine-1,4-dione] here?
A: Its IC50 is 0.11 µM.

Q: What about the IC50 [2, 5] of the same compound?
A: The IC50 was 12 nM.

Q: Which IC50 [1, 3] does the source give for O=C1C=C(c2c(-n3cnnn3)ccc(Cl)c2F)C[C@H]2CC[C@@H](c3ncc(-c4ccnc5[nH]ccc45)[nH]3)N12 (single isomer, unassigned) [Example 362, (3S,8aR*)-3-(5-(1H-pyrrolo[2,3-b]pyridin-4-yl)-1H-imidazol-2-yl)-7-(3-chloro-2-fluoro-6-(1H-tetrazol-1-yl)phenyl)-2,3,8,8a-tetrahydroindolizin-5(1H)-one] here?
A: Its IC50 is 0.0025 µM.

Q: What about the IC50 [2, 4] of the same compound?
A: The IC50 was 0.1 nM.

Q: What does the source list for O=C1C=C(c2c(-n3cnnn3)ccc(Cl)c2F)CC2CC[C@@H](c3nc(-c4ccnc(OC(F)F)c4)c(F)[nH]3)N12 (stereo in doubt) [Example 3, (S)-7-[3-Chloro-2-fluoro-6-(tetrazol-1-yl)phenyl]-3-[4-[2-(difluoromethoxy)-4-pyridyl]-5-fluoro-1H-imidazol-2-yl]-2,3,8,8a-tetrahydro-1H-indolizin-5-one]?
A: IC50 [1, 3]: 0.0054 µM; IC50 [2, 5]: 3.9 nM

Q: [2H]c1nc(C2CCC3CC(c4c(-n5cnnn5)ccc(Cl)c4F)=CC(=O)N32)[nH]c1-c1ccc(N)nc1F (stereo in doubt) [Example 154, (3S,8aR)-3-[5-(6-amino-2-fluoro-3-pyridyl)-4-deuterio-1H-imidazol-2-yl]-7-[3-chloro-2-fluoro-6-(tetrazol-1-yl)phenyl]-2,3,8,8a-tetrahydro-1H-indolizin-5-one] was tested. Which IC50 [1, 3] did it give?
A: Its IC50 is 0.0057 µM.

Q: And the IC50 [2, 5]?
A: Its IC50 is 0.4 nM.

Q: How did the IC50 [1, 3] turn out when O=C1C=C(c2c(-n3cnnn3)ccc(Cl)c2F)C[C@@H]2CC[C@H](c3ncc(-c4ccnc(N5CCC[C@@H](O)C5)c4F)[nH]3)N12 (stereo in doubt) [Example 187, (3R,8aS)-7-(3-chloro-2-fluoro-6-(1H-tetrazol-1-yl)phenyl)-3-(5-(3-fluoro-2-((R)-3-hydroxypiperidin-1-yl)pyridin-4-yl)-1H-imidazol-2-yl)-2,3,8,8a-tetrahydroindolizin-5(1H)-one] was run?
A: The IC50 was 0.0041 µM.

Q: And the IC50 [2, 4]?
A: The IC50 was 3.7 nM.

Q: For COc1c(-c2cnc(C3CC[C@H]4CC(c5c(-n6cnnn6)ccc(Cl)c5F)=CC(=O)N34)[nH]2)ccnc1N (stereo in doubt) [Example 382, (3R,8aS)-3-(5-(2-amino-3-methoxypyridin-4-yl)-1H-imidazol-2-yl)-7-(3-chloro-2-fluoro-6-(1H-tetrazol-1-yl)phenyl)-2,3,8,8a-tetrahydroindolizin-5(1H)-one], which IC50 [1, 3] is on record?
A: The IC50 was 0.0277 µM.

Q: What about the IC50 [2, 4] of the same compound?
A: Its IC50 is 1.4 nM.

Q: How did the IC50 [1, 3] turn out when Nc1cc(-c2[nH]c([C@@H]3CC[C@@H]4CC(c5c(-n6cnnn6)ccc(Cl)c5F)=CC(=O)N43)nc2F)c(Cl)cn1 [Example 1, (3S,8aR)-3-[5-(2-Amino-5-chloro-4-pyridyl)-4-fluoro-1H-imidazol-2-yl]-7-[3-chloro-2-fluoro-6-(tetrazol-1-yl)phenyl]-2,3,8,8a-tetrahydro-1H-indolizin-5-one] was run?
A: The IC50 was 0.0679 µM.

Q: What about the IC50 [2, 4] of the same compound?
A: Its IC50 is 12.6 nM.

Q: Which results are given for O=C1C=C(c2c(-n3cnnn3)ccc(Cl)c2F)C[C@H]2CC[C@@H](c3ncc(-c4ccnc(-c5ncc[nH]5)c4F)[nH]3)N12 [Example 2, (3S,8aR)-7-[3-Chloro-2-fluoro-6-(tetrazol-1-yl)phenyl]-3-[5-[3-fluoro-2-(1H-imidazol-2-yl)-4-pyridyl]-1H-imidazol-2-yl]-2,3,8,8a-tetrahydro-1H-indolizin-5-one]?
A: IC50 [1, 3]: 0.0093 µM; IC50 [2, 4]: 1.9 nM

Q: O=C1C=C(c2c(-n3cnnn3)ccc(Cl)c2F)C[C@H]2CCC(c3ncc(-c4n[nH]cc4Cl)[nH]3)N12 (stereo partly drawn) [Example 4, (8aR)-7-[3-Chloro-2-fluoro-6-(tetrazol-1-yl)phenyl]-3-[5-(4-chloro-1H-pyrazol-3-yl)-1H-imidazol-2-yl]-2,3,8,8a-tetrahydro-1H-indolizin-5-one] was tested. Which IC50 [1, 3] did it give?
A: Its IC50 is 0.867 µM.

Q: What about the IC50 [2, 4] of the same compound?
A: The IC50 was 91.7 nM.

Q: Which results are given for Cc1cc(C(=O)Nc2nccc(-c3cnc([C@@H]4CC[C@@H]5CC(c6c(-n7cnnn7)ccc(Cl)c6F)=CC(=O)N54)[nH]3)c2F)on1 [Example 5, N-[4-[2-[(3S,8aR)-7-[3-Chloro-2-fluoro-6-(tetrazol-1-yl)phenyl]-5-oxo-2,3,8,8a-tetrahydro-1H-indolizin-3-yl]-1H-imidazol-5-yl]-3-fluoro-2-pyridyl]-3-methyl-isoxazole-5-carboxamide]?
A: IC50 [1, 3]: 0.0488 µM; IC50 [2, 4]: 4.2 nM

Q: Which results are given for CS(=O)(=O)Nc1cc(-c2[nH]c(C3CCC4CC(c5c(-n6cnnn6)ccc(Cl)c5F)=CC(=O)N43)nc2F)ccn1 (stereo not drawn) [Example 6, N-[4-[2-[7-[3-Chloro-2-fluoro-6-(tetrazol-1-yl)phenyl]-5-oxo-2,3,8,8a-tetrahydro-1H-indolizin-3-yl]-4-fluoro-1H-imidazol-5-yl]-2-pyridyl]methanesulfonamide]?
A: IC50 [1, 3]: 0.0066 µM; IC50 [2, 4]: 0.6 nM

Q: What does the source list for CS(=O)(=O)Nc1cc(-c2cnc(C3CCC4CC(c5c(-n6cnnn6)ccc(Cl)c5F)=CC(=O)N43)[nH]2)ccn1 (stereo not drawn) [Example 7, N-[4-[2-[7-[3-Chloro-2-fluoro-6-(tetrazol-1-yl)phenyl]-5-oxo-2,3,8,8a-tetrahydro-1H-indolizin-3-yl]-1H-imidazol-5-yl]-2-pyridyl]methanesulfonamide]?
A: IC50 [1, 3]: 0.0701 µM; IC50 [2, 4]: 6.4 nM

Q: For O=C1C=C(c2c(-n3cnnn3)ccc(Cl)c2F)C[C@H]2CC[C@@H](c3ncc(-c4ccc5cc[nH]c5c4)[nH]3)N12 [Example 8], which IC50 [1, 3] is on record?
A: The IC50 was 0.0177 µM.

Q: And the IC50 [2, 4]?
A: Its IC50 is 3.7 nM.

Q: How did the IC50 [1, 3] turn out when O=C1C=C(c2c(-n3cnnn3)ccc(Cl)c2F)CC2CC[C@@H](c3nc(-c4ccnc(OC(F)F)c4)c[nH]3)N12 (stereo partly drawn) [Example 10, (S)-7-[3-Chloro-2-fluoro-6-(tetrazol-1-yl)phenyl]-3-[4-[2-(difluoromethoxy)-4-pyridyl]-1H-imidazol-2-yl]-2,3,8,8a-tetrahydro-1H-indolizin-5-one] was run?
A: Its IC50 is 0.0268 µM.

Q: And the IC50 [2, 4]?
A: Its IC50 is 36.1 nM.

Q: Which IC50 [1, 3] does the source give for CC(=O)N[C@H](C)c1ccc(-c2[nH]c([C@@H]3CCC4CC(c5c(-n6cnnn6)ccc(Cl)c5F)=CC(=O)N43)nc2F)cc1 (stereo partly drawn) [Example 11, N-[(1R)-1-[4-[2-[(3S)-7-[3-Chloro-2-fluoro-6-(tetrazol-1-yl)phenyl]-5-oxo-2,3,8,8a-tetrahydro-1H-indolizin-3-yl]-4-fluoro-1H imidazol-5-yl]phenyl]ethyl]acetamide] here?
A: The IC50 was 0.0305 µM.

Q: What about the IC50 [2, 4] of the same compound?
A: The IC50 was 11.4 nM.

Q: With CCOC(=O)NCc1nccc(-c2cnc([C@@H]3CC[C@@H]4CC(c5c(-n6cnnn6)ccc(Cl)c5F)=CC(=O)N43)[nH]2)c1F [Example 12, Ethyl-N-[[4-[2-[(3S,8aR)-7-[3-Chloro-2-fluoro-6-(tetrazol-1-yl)phenyl]-5-oxo-2,3,8,8a-tetrahydro-1H-indolizin-3-yl]-1H-imidazol-5-yl]-3-fluoro-2-pyridyl]methyl]carbamate] as the compound, how does the IC50 [1, 3] read?
A: Its IC50 is 0.0355 µM.

Q: What about the IC50 [2, 4] of the same compound?
A: The IC50 was 2.7 nM.
